Publication PMC9959130, “Effects of Side Chain and Peptide Bond Modifications on the Targeting Properties of Stabilized Minigastrin Analogs” (Pharmaceuticals, 2023)
Where a SMILES comes first, the peptide text is derived from it. [ ]: non-standard residue; d: D form. The star is where a group is joined. DOTA = O=C(O)CN1CCN(CC(=O)O)CCN(CC(=O)*)CCN(CC(=O)O)CC1; 1Nal = N[C@@H](Cc1cccc2ccccc12)C(=O)O; NMeNle = CCCC[C@H](NC)C(=O)O

Key:
[1] = Metabolic studies in BALB/c mice (intact radiopeptide by radio-HPLC); format: in vivo; conditions: i.v., 2 nmol, 10 min p.i., two animals per peptide
Protocol: All animal experiments were approved by the Austrian Ministry of Science (BMWF-66.011/0075- WF/V/3b/2016) and performed in accordance with the Austrian Animal Protection Act. Metabolic studies characterizing the stability of selected radioligands against enzymatic degradation were carried out in 7 to 8 week old female BALB/c mice (Charles River, Sulzfeld, Germany). The mice (two animals for each peptide) were intravenously injected into a lateral tail vein with 5–10 MBq of the ^111In-labeled peptide derivatives, corresponding to 2 nmol total peptide. At the time point of 10 min p.i. the animals were euthanatized by cervical dislocation. A sample of urine and blood was immediately collected. Liver and kidneys were dissected, mixed with 20 mM HEPES buffer pH 7.3 (1:1, w/v) and homogenized using an Ultra-Turrax T8 homogenizer (IKA-Werke, Staufen, Germany) for 1 min. All samples taken were analyzed by analytical HPLC using the low-sensitivity loop for urine and the high-sensitivity loop for blood, liver and kidney. Before injection into the HPLC system, all samples except urine were treated with ACN and diluted with water as described for stability studies in human serum. The percentage of intact radiopeptide in the analyzed samples was calculated by integration of the different peaks found in the radiochromatogram using Chromeleon Dionex Software (Version 7.2.9.11323).

[2] = tested on: A431-CCK2R and A431-mock xenografts; assay: Biodistribution in BALB/c nude mice bearing A431-CCK2R/A431-mock xenografts; format: in vivo; conditions: xenografted BALB/c nude mice, i.v., ~20 pmol, 4 h p.i. (indium-111 or lutetium-177), mean ± SD n = 4
Procedure, shortened: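 Female athymic BALB/c nude mice carrying subcutaneous A431-CCK2R and A431-mock tumors (~0.25 g) received ~20 pmol radiopeptide i.v. (150–200 kBq; ~0.5 MBq for gallium-68/lutetium-177 studies), n = 4. Tissues γ-counted at 1 h (gallium-68) or 4 h p.i. (indium-111/lutetium-177); expressed as % IA/g and tumor-to-organ ratios.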

Intact radiopeptide in kidney ([1]; kidney homogenate): 20.6 ± 3.8% | Intact radiopeptide in liver ([1]; liver homogenate): 82.5 ± 2.4% | Intact radiopeptide in blood [1]: 93.9 ± 1.2% | Intact radiopeptide in urine [1]: 5.8 ± 0.2% | Uptake in kidneys [2]: 20.67 ± 4.37 %IA/g
SMILES: CCCC[C@@H](C(=O)N[C@@H](CC(=O)O)C(=O)N[C@@H](Cc1cccc2ccccc12)C(N)=O)N(C)C(=O)[C@H](Cc1c[nH]c2ccccc12)NC(=O)CNC(=O)[C@H](Cc1ccc(O)cc1)NC(=O)[C@H](C)NC(=O)[C@@H](CCCCN)NC(=O)CN1CCN(CC(=O)O)CCN(CC(=O)O)CCN(CC(=O)O)CC1 [[^111In]In-DOTA-[DLys^1]MGS5] [metal not drawn] ({DOTA}-[dK]AYGW[NMeNle]D[1Nal]-NH2)
